Laboratory results reported in US20230124634A1, “ANTIBACTERIAL COMPOSITION” (CONOPCO, INC., D/B/A UNILEVER, priority 2020, published 2023).

Legend:
[1] = test system: Staphylococcus aureus ATCC 6538; assay: In-Vitro Time-Kill assay (EN 1040:2005 with minor modifications); assay type: cell-based
Method: Inoculums of S. aureus at about 10^7.5 colony forming units per milliliter (CFU/mL) were prepared from 24-hour cultures on agar plates. […]
The log10 of (number of surviving cells (CFU/mL)/initial number of cells) is plotted versus the exposure time. […] The exposure time is limited to only 60 s, as this time frame is a realistic estimate of the amount of time devoted to hand washing.
Surfactant Solution Preparation—Solution preparation consisted of mixing the surfactant solution with an equal volume of the appropriate buffer to form a test solution containing 50% of the original formulation concentration. Sodium carbonate/bicarbonates buffers (0.1 M) were prepared for use at pH 10 and 7, respectively, while sodium acetate buffer was used at pH 5.
The bacteria were stored at −80° C. and fresh working cultures were prepared by streaking on Tryptic Soy Agar plates for 24 hours at 37° C. and then preparing second subcultures in the same way before each experiment.
Following this procedure, stationary-phase bacterial cultures at approximately […] colony forming units (CFU) per mL (GF-U) were treated with the surfactant solution (as described above) at 25° C., rather than at 20° C. as specified in the Standard. In constructing the test sample, 8 parts by weight of the surfactant solution was combined with 1 part by weight of the culture and 1 part by weight of water. After 10, 20, 30, and 60 seconds of exposure, the samples were neutralized to arrest the antibacterial activity of the surfactant solution. […] The test solutions were serially diluted, plated on solid medium, and incubated for 24 hours. The surviving cells were then enumerated. Bactericidal activity was defined as the log10 reduction in CFU relative to the initial bacterial concentration at 0 seconds. Cultures not exposed to surfactant solution acted as the no-treatment controls. The log10 reduction was calculated using the formula:
log10 reduction=log10(CFU in no-treatment control)−log10(CFU in treated sample)

[2] = cited from earlier work
[3] = Silver ion solubility derived from solubility product (Ksp) in water at 25° C.; settings: calculated from Ksp
Excerpt: More particularly, silver ion solubility [Ag+], a value given in mol/L may be calculated using the formula:

[4] = pH 5; cited from earlier work
[5] = throughout the pH interval claimed

Molecule: O=[N+]([O-])[O-].[Na+] [NaNO3, sodium nitrate]
- NaNO3 necessary to recover a one unit log10 reduction in S. aureus ([1]; in the presence of 0.03 M NaCl, SLES/Ag^+, pH 7.0): ≥ 0.3 M

Molecule: CCCCCCCCCCCCOS(=O)(=O)[O-].[Na+] [SDS, sodium dodecyl sulfate]
- synergy with silver ion ([1]; pH 5): strong synergy with silver ion
- intrinsic biocidal properties ([1]; pH 5, on its own): quite biocidal on its own
- inherent biocidal action [1, 5]: limited inherent biocidal action
- synergy with silver ion [1, 5]: strong synergy with silver ion

Molecule: O=C([O-])c1ccccc1.[Ag+] [Silver benzoate]
- Ksp (mol/L in water at 25° C.) [2]: 2.5e-05 mol/L

Molecule: [Br][Ag] [Silver bromide]
- Ksp (mol/L in water at 25° C.) [2]: 5.3e-13 mol/L

Molecule: [Cl][Ag] [Silver chloride]
- Silver Ion Solubility [Ag+] (mol/L in water at 25° C.) [3]: 1.3e-05 mol/L
- Ksp (mol/L in water at 25° C.) [2]: 1.8e-10 mol/L

Molecule: O=C([O-])CC(O)(CC(=O)[O-])C(=O)[O-].[Ag+].[Ag+].[Ag+] [Silver citrate]
- Ksp (mol/L in water at 25° C.) [2]: 2.5e-16 mol/L

Molecule: O=S(=O)([O-])[O-].[Ag+].[Ag+] [Silver sulfate]
- Ksp (mol/L in water at 25° C.) [2]: 1.4e-05 mol/L

Molecule: O=C(O)c1ccccc1 [benzoic acid]
- percentage of organic acid preservative remaining undissociated (and active) [4]: 13%

Molecule: [Ag+] [silver ion]
- minimum level of silver ion necessary to see enhanced biocidal action ([1]; in the presence of 10% SLES and 0.5 M NaNO3, pH 7 and 25° C.): ≥ 0.03 ppm

Molecule: C/C=C/C=C/C(=O)O [sorbic acid]
- percentage of organic acid preservative remaining undissociated (and active) [4]: 37%

Molecule: Sodium methyl cocoyl taurate [reference compound]
- synergy with silver ion ([1]; pH 5): nor does it enhance the biocidal action of silver ion
- intrinsic biocidal properties ([1]; pH 5, on its own): does not have intrinsic biocidal properties
- biocidal, inherently or in combination with silver ion ([1]; pH 7): ineffective

Molecule: octyl phenol ethoxylate [Triton X-100, reference compound]
- biocidal, inherently or in combination with silver ion ([1]; pH 5, 10-60 second time scale): not biocidal
- biocidal, inherently or in combination with silver ion ([1]; pH 7): ineffective

Molecule: sodium cocoyl glutamate [reference compound]
- biocidal, inherently or in combination with silver ion ([1]; pH 7): ineffective

Molecule: sodium cocoyl glycinate [reference compound]
- biocidal, inherently or in combination with silver ion ([1]; pH 7): ineffective

Molecule: sodium lauroamphoacetate [reference compound]
- biocidal, inherently or in combination with silver ion ([1]; pH 7): ineffective

Molecule: sodium lauryl ether sulfate [SLES]
- synergy with silver ion ([1]; pH 5): strong synergy with silver ion
- log10 reduction ([1]; pH 5, on its own): about 2 log10
- log10 unit reduction ([1]; pH 7, SLES at 1% (top-half of Table 5)): ≤ 1 log10
- log10 unit reduction ([1]; pH 7, SLES at 10% (second half of Table 5)): ≤ 1 log10

Molecule: sodium lauryl ether sulfate with (on average) 1 ethoxy group [SLES-1 EO]
- log10 reduction ([1]; pH range of 7-10, in the presence of silver ion): about 4 log10
- log10 reduction ([1]; pH range of 7-10, without silver): about 0.5 log10
- inherent biocidal action [1, 5]: limited inherent biocidal action
- synergy with silver ion [1, 5]: strong synergy with silver ion

Molecule: sodium lauryl ether sulfate with (on average) 3 ethoxy groups [SLES-3EO]
- inherent biocidal action [1, 5]: limited inherent biocidal action
- synergy with silver ion [1, 5]: strong synergy with silver ion
